Data taken from patent US7354711B2, “Methods for inhibiting immunostimulatory DNA associated responses” (University of Iowa Research Foundation, priority 1997, dated 2008).

Experiments:
WEHI 231 cells [1] = assay: Inhibition of CpG-ODN 1760 protection against α-sIgM-induced inhibition of [3H] thymidine uptake; type: cell-based, mouse
Description: (§1) The assay of [^3H] Thymidine incorporation was carried out as follows. WEHI 231 cells (200 μL at 2×10^5/milliliter, in duplicate or triplicate) were incubated in a 96-well plate (Costar, Cambridge Mass.). Additions were made as indicated. After incubating for 16 hours, 0.5 μCi [methyl-^3H] thymidine (2 Ci/millimole, DuPont NEN, Boston Mass.) was added to each well, and the cells were incubated for another 4 hours. Cellular DNA was then captured onto glass fiber filters (Whatman 934AH) using a cell harvester (Brandel, Gaithersberg Md.). The filters were dried, placed into plastic scintillation vials with 10 milliliters of scintillation cocktail (EconoSafe, Research Products International, Mount Prospect Ill.), and counted in a liquid scintillation counter (Beckman LS-3133 T). The ^3H recovered on the filter was expressed as a fraction of the ^3H added.
Referring to experiments summarized in FIG. 1, WEHI 231 cells (ca. 2×10^5 per milliliter) were incubated for 16 hours at 37° C. with 10 μgrams/milliliter α-sIgM, 6 μgrams/milliliter ODN 1760, and the indicated concentration of the compound. After 16 hours, 0.5 μCi [^3H] thymidine was added. After 4 more hours incubation, the cellular DNA was harvested onto glass fiber filters. The dry filters were counted in a liquid scintillation counter.
Each experimental point was the mean of at least duplicate measurements.
Referring to the experiments summarized in FIG. 3, 10 μgrams/milliliter α-sIgM and the indicated concentrations of ODN 1760 and quinacrine were added simultaneously to WEHI 231 cells. Thymidine incorporation was estimated at 16 hours as described for Example 1.
Referring to the experiments summarized in FIG. 4, WEHI 231 cells were incubated with α-sIgM and ODN 1760. At times thereafter 0.1 μM quinacrine was added (data shown in the left three bars). Cells were incubated with 10 μgrams/milliliter (α-sIgM and ODN 1760 (6 μgrams/milliliter, phosphorothioate or a phosphodiester ODN with the same sequence as 1760 (PD ODN) (30 μM at time 0 hours and 8 hours; data represented in right six bars in FIG. 4). [^3H] thymidine incorporation was estimated at 16 hours.
The symbol — indicates no change. Me and Et indicate —CH3 and —CH2CH3 respectively. Aromatic substituents are in the para position except as indicated. The activity is —log10 of the concentration (M) required for half maximal inhibition of CpG-ODN effect on [^3H] thymidine uptake in the presence of α-sIgM.

WEHI 231 cells [2] = assay: DNA fragmentation assay (α-sIgM-induced apoptosis); type: cell-based, mouse; details: 0.1 μM quinacrine, 6 μg/mL ODN 1760, α-sIgM, 16 hours
Description: The DNA fragmentation assay was carried out generally as follows. WEHI 231 cells were incubated with 0.5 μCi/milliliter [^3H] thymidine for 3 hours, centrifuged, resuspended in 2 milliliters of fresh medium at 2×10^5/milliliter, and incubated in a 24-well plate with additions as indicated. After incubation for 16-18 hours, 1 milliliter aliquots of the cells were centrifuged, washed with 200 μliters PBS. This suspension was drawn into a pipette tip containing 25 μliters of 2% SDS, and the mixture was immediately ejected into a well of a 0.8% agarose TBE gel containing 0.5 μliter/milliliter ethidium bromide. The gel was electrophoresed for 1 hour at 65 volts, destained in water, and photographed under ultraviolet light. The lanes of the gel were cut into three approximately equal portions. […] The gel portions were melted in glass scintillation vials and mixed with a 20 milliliter of scintillation cocktail and counted in a scintillation counter. The amount of fragmented DNA (DNA in the second and third gel pieces) was expressed as a percentage of the total counts recovered in the lane.
Referring to the experiments summarized in FIG. 2a, WEHI 231 cells (2×10^5 per milliliter) were incubated with or without 6 μgrams/milliliter ODN 1760, 10 μgrams/milliliter α-sIgM, or 0.1 μM quinacrine as indicated. Live cells were counted daily. […]

WEHI 231 cells [3] = assay: Protection by lipopolysaccharide against α-sIgM-induced inhibition of [3H] thymidine uptake; type: cell-based, mouse; details: 0.1 μM quinacrine, concentration that completely reversed the effect of ODN 1760
Description: as §1, with “added. In a typical experiment, WEHI 231 cells incorporate about 15% of added ^3H.” for “added.”
In the experiments summarized in FIG. 5, the influence of LPS on α-sIgM-induced suppression of thymidine incorporation was examined.
Lipopolysaccharide (LPS) was added at the indicated concentration with or without 10 μgrams/milliliter α-sIgM and 0.1 μM quinacrine. The small degree of protection against α-sIgM-induced inhibition of [^3H] thymidine uptake afforded by LPS is not influenced by quinacrine.

WEHI 231 cells [4] = assay: Protection by ODN 1760 against C2-ceramide-induced inhibition of [3H] thymidine uptake; type: cell-based, mouse; details: 0.1 μM quinacrine, 6 μg/mL ODN
Description: as §1, with “added. In a typical experiment, WEHI 231 cells incorporate about 15% of added ^3H.” for “added.”
Referring to the experiments summarized in FIG. 6, WEHI 231 cells were incubated with C2-ceramide as indicated with or without 6 μgrams/milliliter ODN and 0.1 μM quinacrine and thymidine incorporation was estimated. Referring to the experiments summarized in FIG. 7, WEHI 231 cells were prelabeled with 0.5 μCi/milliliter [^3H] thymidine for 3 hours, and resuspended in fresh medium containing 10 nM thapsigargin. […]

[5] = test system: multi-drug resistance pump; assay: Potency with inhibition of the multi-drug resistance pump; type: cell-based

## CCN(CC)CCCC(C)Nc1c2ccc(Cl)cc2nc2ccc(OC)cc12 (stereo not shown) [quinacrine]
WEHI 231 cells [1]; 0.1 μM quinacrine added 8 hours after the CpG-ODN
  Block of CpG-ODN action on subsequent addition (FIG. 4): blocked the action of CpG-ODN
WEHI 231 cells [1]; 0.1 μM quinacrine, PD ODN 30 μM at 0 and 8 hours
  Block of the action of phosphodiester ODN (FIG. 4): effective in blocking
WEHI 231 cells [1]; Table 3, 9-aminoacridines
  vs. Chloroquine, fold: 7.76 fold
WEHI 231 cells [1]; Table 3, 9-aminoacridines, WEHI 231 cells
  Activity,-log10 (concentration (M) for half maximal inhibition of CpG-ODN effect on [3H] thymidine uptake in the presence of α-sIgM): 7.85
WEHI 231 cells [1]; at nanomolar concentrations, 10 μg/mL α-sIgM, 6 μg/mL ODN 1760
  Inhibition of the CpG-ODN effect (FIG. 1): completely inhibited
WEHI 231 cells [1]; range of concentrations of ODN 1760 and quinacrine, 10 μg/mL α-sIgM
  Inhibition at increasing concentrations of ODN 1760 (non-competitive kinetics, FIG. 3): increasing the concentration of ODN 1760 did not overcome the inhibitory effect
WEHI 231 cells [2]
  Reversal of ODN 1760 protection, percentage of fragmented DNA (FIG. 2b): reversed this protection
WEHI 231 cells [3]
  Effect on the action of LPS (FIG. 5): no effect
WEHI 231 cells [4]
  Block of ODN 1760 protection against C2-ceramide (FIG. 6): blocked this protective effect
[5]
  Change of potency on inhibition of the multi-drug resistance pump: magnified
